Measurements reported in patent publication US20230056935A1, “Compound, Antimicrobial Deodorant Composition Comprising Same, and Method for Producing Same” (LG Chem, Ltd., priority 2020, published 2023).

Experiments:
E. coli (ATCC 25922) = assay: Antibacterial property evaluation, bacterial growth inhibition (absorbance at 600 nm); type: cell-based; conditions: Escherichia coli, 16 hours at 35° C.; for Absorbance: 600 nm
Description: (§1) After introducing 1 mg to 200 mg of the compound to a nutrient broth culture medium (25 ml) inoculated with bacteria 3000±300 CFU/ml, the result is incubated for 16 hours at 35° C. in a shaking incubator to prepare a test culture medium. A control culture medium is prepared in the same manner except that the compound is not introduced in the test culture medium. For the test culture medium and the control culture medium, absorbance at a wavelength of 600 nm is measured using a UV-Vis spectrophotometer, and using the measured absorbance value, a bacterial growth inhibition rate (%) is calculated according to the following Mathematical Formula 1.
(§2) To a nutrient broth culture medium (25 ml) inoculated with Proteus mirabilis (ATCC 29906) or E. coli (ATCC 25922) 3000±300 CFU/ml, Compound 1 prepared in Preparation Example 1 was introduced in a content as described in the following Table 1, and the result was incubated for 16 hours at 35° C. in a shaking incubator to prepare a test culture medium. As a control, a control culture medium was prepared in the same manner except that the compound was not introduced in the test culture medium. For the test culture medium and the control culture medium, absorbance at a wavelength of 600 nm was measured using a UV-Vis spectrophotometer. Using the measurement results, a bacterial growth inhibition rate (%) was calculated according to the following Mathematical Formula 1.
(§3) (As: absorbance of test culture medium, A0: absorbance of control culture medium)

[1] = system: Proteus mirabilis (ATCC 29906); assay: as above; type: cell-based; conditions: 16 hours at 35° C.; for Absorbance: 600 nm
Description: as §1, §2, §3

[2] = Deodorizing property evaluation (SPME, GC/MS peak area); conditions: total 80 mg
Description: To a test solution including the compound in 1 phr to 20 phr with respect to a total weight of 80 mg of a super absorbent polymer and the compound, 20 mL of a malodorous solution is introduced, isovaleraldehyde is adsorbed using a solid-phase microextraction method, and a GC/MS peak area of the adsorbed isovaleraldehyde is analyzed through a GC/MS analysis. For a control solution prepared in the same manner except that the compound is not introduced in the test solution, a GC/MS peak area of isovaleraldehyde is analyzed in the same manner, and, using the GC/MS peak area values of the test solution and the control solution, a deodorization rate is calculated according to the following Mathematical Formula 2.
Compound 1 prepared in Preparation Example 1 was introduced to a vial in a content as described in the following Table 2, and after introducing a super absorbent polymer (LG Chem., GS-301N) thereto so that a total content of the super absorbent polymer and Compound 1 becomes 80 mg, a malodorous solution (20 mL) was introduced thereto to prepare a test solution. As the malodorous solution, a solution in which diacetyl (242 ug/mL), isovaleraldehyde (49 ug/mL), dimethyl disulfide (30 ug/mL), dimethyl trisulfide (26 ug/mL) and p-cresol (2508 ug/mL) are mixed was 1/1000 diluted using an aqueous sodium chloride solution (0.9% by weight) and used. Volatile substances generated in the test solution was adsorbed using a solid-phase microextraction method (SPME), and through a GC/MS analysis, GC/MS peak areas of the adsorbed malodorous substances (diacetyl, isovaleraldehyde, dimethyl disulfide, dimethyl trisulfide and p-cresol) were each analyzed. For a control solution prepared in the same manner except that Compound 1 was not included, peak areas of the malodorous substances were analyzed in the same manner, and deodorization rates thereof were each calculated according to the following Mathematical Formula 2.
(Cs: GC/MS peak areas of malodorous substances test solution, C0: GC/MS peak areas of malodorous substances of control solution)

[3] = content 20 mg in 25 ml nutrient broth
[4] = content 50 mg in 25 ml nutrient broth
[5] = content 100 mg in 25 ml nutrient broth
[6] = 1 phr of Compound 1 with super absorbent polymer
[7] = 2 phr of Compound 1 with super absorbent polymer
[8] = 5 phr of Compound 1 with super absorbent polymer
[9] = 8 phr of Compound 1 with super absorbent polymer
[10] = 10 phr of Compound 1 with super absorbent polymer

C=CC(=O)OCCC1CCCCN1C(=O)OC(C)CC (stereo not shown) [Compound 1]
Bacterial Growth Inhibition Rate (%) (E. coli (ATCC 25922); [3]): 62.9%
Absorbance (E. coli (ATCC 25922); [3]): 0.063
Bacterial Growth Inhibition Rate (%) (E. coli (ATCC 25922); [4]): 92.4%
Absorbance (E. coli (ATCC 25922); [4]): 0.013
Bacterial Growth Inhibition Rate (%) (E. coli (ATCC 25922); [5]): 88.8%
Absorbance (E. coli (ATCC 25922); [5]): 0.019
Bacterial Growth Inhibition Rate (%) [1, 3]: 55.6%
Absorbance [1, 3]: 0.059
Bacterial Growth Inhibition Rate (%) [1, 4]: 91.7%
Absorbance [1, 4]: 0.011
Bacterial Growth Inhibition Rate (%) [1, 5]: 89.5%
Absorbance [1, 5]: 0.014
Deodorization rate (%) for Diacetyl [2, 6]: 79%
Deodorization rate (%) for Dimethyl Disulfide [2, 6]: 65%
Deodorization rate (%) for Dimethyl Trisulfide [2, 6]: 16%
Deodorization rate (%) for Isovaleraldehyde [2, 6]: 87%
Deodorization rate (%) for p-Cresol [2, 6]: 2%
Deodorization rate (%) for Diacetyl [2, 7]: 86%
Deodorization rate (%) for Dimethyl Disulfide [2, 7]: 76%
Deodorization rate (%) for Dimethyl Trisulfide [2, 7]: 27%
Deodorization rate (%) for Isovaleraldehyde [2, 7]: 92%
Deodorization rate (%) for p-Cresol [2, 7]: 20%
Deodorization rate (%) for Diacetyl [2, 8]: 91%
Deodorization rate (%) for Dimethyl Disulfide [2, 8]: 84%
Deodorization rate (%) for Dimethyl Trisulfide [2, 8]: 61%
Deodorization rate (%) for Isovaleraldehyde [2, 8]: 94%
Deodorization rate (%) for p-Cresol [2, 8]: 37%
Deodorization rate (%) for Diacetyl [2, 9]: 92%
Deodorization rate (%) for Dimethyl Disulfide [2, 9]: 88%
Deodorization rate (%) for Dimethyl Trisulfide [2, 9]: 72%
Deodorization rate (%) for Isovaleraldehyde [2, 9]: 95%
Deodorization rate (%) for p-Cresol [2, 9]: 46%
Deodorization rate (%) for Diacetyl [2, 10]: 93%
Deodorization rate (%) for Dimethyl Disulfide [2, 10]: 88%
Deodorization rate (%) for Dimethyl Trisulfide [2, 10]: 76%
Deodorization rate (%) for Isovaleraldehyde [2, 10]: 95%
Deodorization rate (%) for p-Cresol [2, 10]: 61%
